Laboratory results published in patent US8263606B2 (Xenon Pharmaceuticals Inc., priority 2008, dated 2012).

Experiments:
[1] = biological target: CYP3A4 (Homo sapiens, UniProt P08684); assay: Cytochrome P450 (CYP450) Inhibition Assay, CYP3A4 (Vivid fluorescence, BOMCC substrate); settings: human, P450 Baculosomes (recombinant CYP3A4), probe BOMCC (Vivid substrate)
[2] = system: sodium channel; assay: Guanidine influx assay (14C-guanidine radiotracer flux, in vitro); format: cell-based, human or rat; settings: guanidine influx assay using a known cell line that expresses a sodium channel; activity level class
Outline: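 Aconitine holds channels open while 14C-guanidine enters human or rat sodium-channel-expressing cells in choline-substituted low-sodium saline, with test agent present at ambient temperature. Retained tracer is scintillation-counted and IC50 fitted by a four-parameter logistic model.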

Chain of CYP3A4 (P08684 whole entry): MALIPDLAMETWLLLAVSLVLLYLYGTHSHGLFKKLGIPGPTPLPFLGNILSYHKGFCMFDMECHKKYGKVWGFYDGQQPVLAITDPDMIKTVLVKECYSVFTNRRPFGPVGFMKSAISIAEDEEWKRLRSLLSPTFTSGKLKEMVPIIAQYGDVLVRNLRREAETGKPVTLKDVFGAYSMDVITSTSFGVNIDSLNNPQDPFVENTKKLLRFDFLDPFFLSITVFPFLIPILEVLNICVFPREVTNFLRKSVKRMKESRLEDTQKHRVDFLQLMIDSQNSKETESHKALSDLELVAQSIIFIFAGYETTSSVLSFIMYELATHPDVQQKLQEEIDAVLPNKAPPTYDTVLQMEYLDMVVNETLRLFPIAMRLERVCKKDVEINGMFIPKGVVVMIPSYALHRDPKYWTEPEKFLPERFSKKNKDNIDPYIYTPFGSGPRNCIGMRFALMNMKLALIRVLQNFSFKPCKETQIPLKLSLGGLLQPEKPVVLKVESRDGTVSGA

inhibition at 10 µM [1]	IC50 [2]	melting point	Structure (SMILES)
< 50%	0.001 to 0.1 µM	69 to 71 °C	N#Cc1ccc(CN2C(=O)C3(COc4cc5c(cc43)CCO5)c3ccccc32)cc1 (stereo not drawn) [Example 4.23, 4-((2′-oxo-5,6-dihydro-2H-spiro[benzofuro[6,5-b]furan-3,3′-indoline]-1′-yl)methyl)benzonitrile]
< 50%	0.1 to 1 µM	192 to 194 °C	N#Cc1ccccc1-c1ccc(CN2C(=O)C3(COc4cc5c(cc43)CCO5)c3ccccc32)cc1 (stereo not drawn) [Example 4.24, 4′-[(2′-oxo-5,6-dihydrospiro[benzo[1,2-b:5,4-b′]difuran-3,3′-indol]-1′(2′H)-yl)methyl]biphenyl-2-carbonitrile]
> 50%	0.1 to 1 µM	49 to 52 °C	C[C@@H](CN1C(=O)C2(COc3cc4c(cc32)CCO4)c2ccccc21)OCOCc1ccccc1 (stereo partly drawn) [Example 4.25, 1′-{(2S)-2-[(benzyloxy)methoxy]propyl}-5,6-dihydrospiro[benzo[1,2-b:5,4-b′]difuran-3,3′-indol]-2′(1′H)-one]
< 50%	0.001 to 0.1 µM	173 to 175 °C	O=C1N(Cc2ccc3c(c2)OCCO3)c2ccccc2C12COc1cc3c(cc12)CCO3 (stereo not drawn) [Example 4.26, 1′-(2,3-dihydro-1,4-benzodioxin-6-ylmethyl)-5,6-dihydrospiro[benzo[1,2-b:5,4-b′]difuran-3,3′-indol]-2′(1′H)-one]
> 50%	0.001 to 0.1 µM	166 to 169 °C	O=C1N(Cc2ccc(C(F)(F)F)o2)c2cccc(Cl)c2C12COc1cc3c(cc12)CCO3 (stereo not drawn) [Example 4.33, 4′-chloro-1′-{[5-(trifluoromethyl)furan-2-yl]methyl}-5,6-dihydrospiro[benzo[1,2-b:5,4-b′]difuran-3,3′-indol]-2′(1′H)-one]
< 50%	0.001 to 0.1 µM	78 to 82 °C	O=C1N(C[C@H]2CCCO2)c2cccc(Cl)c2C12COc1cc3c(cc12)CCO3 (stereo partly drawn) [Example 4.34, 4′-chloro-1′-[(2R)-tetrahydrofuran-2-ylmethyl]-5,6-dihydrospiro[benzo[1,2-b:5,4-b′]difuran-3,3′-indol]-2′(1′H)-one]
> 50%	0.001 to 0.1 µM	137 to 141 °C	O=C1N(C[C@H]2CCCO2)c2cccc(Br)c2C12COc1cc3c(cc12)CCO3 (stereo partly drawn) [Example 4.35, 4′-bromo-1′-[(2R)-tetrahydrofuran-2-ylmethyl]-5,6-dihydrospiro[benzo[1,2-b:5,4-b′]difuran-3,3′-indol]-2′(1′H)-one]
< 50%	0.001 to 0.1 µM	129 to 131 °C	O=C1N(CC2CCOCC2)c2ccccc2C12COc1cc3c(cc12)OCCO3 (stereo not drawn) [Example 4.37, 1′-(tetrahydro-2H-pyran-4-ylmethyl)-2,3-dihydrospiro[furo[2,3-g][1,4]benzodioxine-8,3′-indol]-2′(1′H)-one]
< 50%	0.001 to 0.1 µM	208 to 209 °C	O=C1N(Cc2ccccn2)c2ccccc2C12COc1cc3c(cc12)OCCO3 (stereo not drawn) [Example 4.41, 1′-(pyridin-2-ylmethyl)-2,3-dihydrospiro[furo[2,3-g][1,4]benzodioxine-8,3′-indol]-2′(1′H)-one]
< 50%	0.001 to 0.1 µM	174 to 176 °C	O=C1N(C[C@H]2CCCO2)c2ccccc2C12COc1cc3c(cc12)OCCO3 (stereo partly drawn) [Example 4.44, 1′-[(2R)-tetrahydrofuran-2-ylmethyl]-2,3-dihydrospiro[furo[2,3-g][1,4]benzodioxine-8,3′-indol]-2′(1′H)-one]
> 50%	0.001 to 0.1 µM	209 to 211 °C	COc1ccc(CN2C(=O)C3(COc4cc5c(cc43)OCCO5)c3ccccc32)cc1OC (stereo not drawn) [Example 4.46, 1′-(3,4-dimethoxybenzyl)-2,3-dihydrospiro[furo[2,3-g][1,4]benzodioxine-8,3′-indol]-2′(1′H)-one]
> 50%	0.001 to 0.1 µM	192 to 195 °C	COc1cc(CN2C(=O)C3(COc4cc5c(cc43)OCCO5)c3ccccc32)cc(OC)c1 (stereo not drawn) [Example 4.47, 1′-(3,5-dimethoxybenzyl)-2,3-dihydrospiro[furo[2,3-g][1,4]benzodioxine-8,3′-indol]-2′(1′H)-one]
< 50%	0.001 to 0.1 µM	198 to 200 °C	O=C1N(Cc2ccccn2)c2ccccc2C12COc1cc3c(cc12)OCC3 (stereo not drawn) [Example 4.52, 1′-(pyridin-2-ylmethyl)-6,7-dihydrospiro[benzo[1,2-b:4,5-b′]difuran-3,3′-indol]-2′(1′H)-one]
< 50%	0.1 to 1 µM	151 to 156 °C	O=C1N(C[C@H]2CCCO2)c2ccccc2C12COc1cc3c(cc12)CCCO3 (stereo partly drawn) [Example 4.53, 1′-[(2R)-tetrahydrofuran-2-ylmethyl]-6,7-dihydro-5H-spiro[furo[3,2-g]chromene-3,3′-indol]-2′(1′H)-one]
> 50%	1 to 10 µM	137 to 138 °C	Cc1nc2cc3c(cc2s1)C1(CO3)C(=O)N(CCC(C)C)c2ccccc21 (stereo not drawn) [Example 4.56, 2-methyl-1′-(3-methylbutyl)spiro[furo[2,3-f][1,3]benzothiazole-7,3′-indol]-2′(1′H)-one]
> 50%	1 to 10 µM	186 to 187 °C	Cc1nc2cc3c(cc2s1)C1(CO3)C(=O)N(CC2CCOCC2)c2ccccc21 (stereo not drawn) [Example 4.57, 2-methyl-1′-(tetrahydro-2H-pyran-4-ylmethyl)spiro[furo[2,3-f][1,3]benzothiazole-7,3′-indol]-2′(1′H)-one]
< 50%	1 to 10 µM	188 to 190 °C	Cc1nc2cc3c(cc2o1)C1(CO3)C(=O)N(C[C@H]2CCCO2)c2ccccc21 (stereo partly drawn) [Example 4.58, 2-methyl-1′-[(2R)-tetrahydrofuran-2-ylmethyl]spiro[furo[2,3-f][1,3]benzoxazole-7,3′-indol]-2′(1′H)-one]
< 50%	1 to 10 µM	79 to 81 °C	CN1C(=O)COc2cc3c(cc21)C1(CO3)C(=O)N(C[C@H]2CCCO2)c2ccccc21 (stereo partly drawn) [Example 4.59, 1-methyl-1′-[(2R)-tetrahydrofuran-2-ylmethyl]-1H-spiro[furo[3,2-g][1,4]benzoxazine-8,3′-indole]-2,2′(1′H-3H)-dione]
< 50%	1 to 10 µM	> 250 °C	Cn1c(=O)oc2cc3c(cc21)C1(CO3)C(=O)N(C[C@H]2CCCO2)c2ccccc21 (stereo partly drawn) [Example 4.60, 1-methyl-1′-[(2R)-tetrahydrofuran-2-ylmethyl]spiro[furo[3,2-f][1,3]benzoxazole-7,3′-indole]-2,2′(1′H,1′H)-dione]

Further lines, the molecule ahead of its results:

Structure (SMILES)	inhibition at 10 µM [1]	IC50 [2]	melting point
COc1cc2c(cc1C)[C@]1(CO2)C(=O)Nc2ccccc21 [Example 3.26, (3R)-6-methoxy-5-methylspiro[1-benzofuran-3,3′-indol]-2′(1′H)-one]	> 50%	1 to 10 µM	> 250 °C
O=C1Nc2cc3c(cc2C12COc1cc4c(cc12)CCO4)OCCO3 (stereo not drawn) [Example 3.28, 2′,3′,5,6-tetrahydrospiro[benzo[1,2-b:5,4-b′]difuran-3,8′-[1,4]dioxino[2,3-f]indol]-7′(6′H)-one]	> 50%	1 to 10 µM	> 250 °C
N#Cc1cc2c(cc1F)OCC21C(=O)Nc2ccccc21 (stereo not drawn) [Example 3.30, 6-fluoro-2′-oxo-1′,2′-dihydrospiro[1-benzofuran-3,3′-indole]-5-carbonitrile]	< 50%	1 to 10 µM	222 to 224 °C
O=C1Nc2cccc(F)c2C12COc1cc3c(cc12)OCCO3 (stereo not drawn) [Example 3.33, 4′-fluoro-2,3-dihydrospiro[furo[2,3-g][1,4]benzodioxine-8,3′-indol]-2′(1′H)-one]	< 50%	0.001 to 0.1 µM	282 to 285 °C
O=C1Nc2ccccc2C12COc1c(Cl)cc3c(c12)OCCO3 (stereo not drawn) [Example 3.42, 6-chloro-2,3-dihydrospiro[furo[3,2-f][1,4]benzodioxine-9,3′-indol]-2′(1′H)-one]	< 50%	1 to 10 µM	255 to 257 °C
O=C1Nc2ccccc2C12COc1cc(F)c(F)cc12 (stereo not drawn) [Example 3.44, 5,6-difluorospiro[1-benzofuran-3,3′-indol]-2′(1′H)-one]	> 50%	1 to 10 µM	> 200 °C
O=C1Nc2ccccc2C12COc1cc3c(cc12)CCCC3 (stereo not drawn) [Example 3.45, 5′,6′,7′,8′-tetrahydrospiro[indole-3,3′-naphtho[2,3-b]furan]-2(1′H)-one]	> 50%	1 to 10 µM	> 230 °C
COCCOc1ccc2c(c1)OCC21C(=O)Nc2ccccc21 (stereo not drawn) [Example 3.46, 6-(2-methoxyethoxy)spiro[1-benzofuran-3,3′-indol]-2′(1′H)-one]	< 50%	1 to 10 µM	172 to 174 °C
O=C1Nc2ccccc2C12COc1c2ccc2c1OCCO2 (stereo not drawn) [Example 3.48, 2,3-dihydrospiro[furo[2,3-f][1,4]benzodioxine-7,3′-indol]-2′(1′H)-one]	< 50%	1 to 10 µM	> 250 °C
O=C1Nc2ccccc2C12COc1cc3nccnc3cc12 (stereo not drawn) [Example 3.51, spiro[furo[2,3-g]quinoxaline-8,3′-indol]-2′(1′H)-one]	< 50%	1 to 10 µM	206 to 207 °C
